The target of one assay is T1, THIK-1 S136A (Homo sapiens, UniProt Q9HB14, S136A).
T1 construct: expressed in transfected cells; host or cells: Xenopus oocytes (mRNA injection)
In words: Inside-out excised patch recordings, oocytes, THIK-1 S136A mutant. The following applies: read-out: TPenA IC50. Type of assay: cell-based. An excerpt:
Supplement 41594_2025_1497_MOESM2_ESM.xlsx, sheet "ExtData_Fig_S2c" | column: Normalized currents

Another assay has as its target T2, THIK-2*-Y292A (Homo sapiens, UniProt Q9HB15, R11A/R12A/R14A/R15A/R16A/Y292A).
T2 construct: expressed in transfected cells; host or cells: Xenopus oocytes (mRNA injection)
T2 sequence (Q9HB15 1-430 R11A/R12A/R14A/R15A/R16A/Y292A): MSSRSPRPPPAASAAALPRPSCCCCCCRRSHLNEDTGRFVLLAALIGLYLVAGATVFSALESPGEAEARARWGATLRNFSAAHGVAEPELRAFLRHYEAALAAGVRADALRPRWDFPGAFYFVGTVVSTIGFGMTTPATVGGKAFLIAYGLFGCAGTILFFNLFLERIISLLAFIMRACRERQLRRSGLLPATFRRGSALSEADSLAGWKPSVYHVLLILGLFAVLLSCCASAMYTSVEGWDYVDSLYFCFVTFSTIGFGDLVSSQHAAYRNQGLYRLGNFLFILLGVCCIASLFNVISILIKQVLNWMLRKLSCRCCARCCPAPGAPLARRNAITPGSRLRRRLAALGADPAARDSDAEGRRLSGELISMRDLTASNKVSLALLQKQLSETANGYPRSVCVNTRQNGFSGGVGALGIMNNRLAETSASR
The assay is described as follows: Inside-out excised patch recordings, oocytes, THIK-2* Y292A. The assay is classed as cell-based. The text has this:
Human K2P13.1 THIK-1 (GenBank accession number: NM_022054) and human K2P12.1 THIK-2 (NM_022055.1) were used in this study. For functional expression studies, the respective K^+ channel subtype coding sequences were subcloned into the oocyte expression vector pSGEM or the dual-purpose expression vector pFAW[41] and verified by sequencing. All mutant channels were obtained by site-directed mutagenesis and verified by sequencing. To increase surface expression and macroscopic currents, measurements of THIK-2 channels used a mutated ER retention motif, (R11A R12A R14A R15A R16A; THIK-2*)[20]. Vector DNA was linearized with NheI or MluI, and mRNA was synthesized in vitro using the SP6 or T7 AmpliCap Max High Yield Message Maker Kit (Cellscript, USA) or HiScribe T7 ARCA mRNA Kit (New England Biolabs).
Two-electrode voltage–clamp (TEVC) studies were performed in Xenopus oocytes. All animal use conformed to the Guide for the Care and Use of Laboratory Animals (NIH Publication 85–23), and all experiments using Xenopus toads were approved by the local ethics panels. Oocytes were stored at 17 °C in ND96 recording solution composed of (in mM): 96 NaCl, 2 KCl, 1.8 CaCl2, 1 MgCl2, 5 HEPES (pH 7.5 adjusted with NaOH and HCl), supplemented with Na-pyruvate (275 mg L^–1), theophylline (90 mg L^–1) and gentamicin (50 mg L^–1). Oocytes were injected with 1 ng mRNA for WT or mutant channels, and were incubated for 24–48 h at 17 °C. Two-electrode voltage clamp recordings were then performed as previously described[42],[43]. For macroscopic patch–clamp measurements, oocytes were obtained as described above incubated at 17 °C in a solution containing (mM): 54 NaCl, 30 KCl, 2.4 NaHCO3, 0.82 MgSO4 ×7 H2O, 0.41 CaCl2, 0.33 Ca(NO3)2 ×4 H2O and 7.5 TRIS (pH 7.4 adjusted with NaOH and HCl) for 1–4 days before use. Excised patch recordings in inside-out configuration conditions were performed at room temperature. Patch pipettes were made from thick-walled borosilicate glass GB 200TF-8P (Science Products), had resistances of 0.2–0.5 MΩ (tip diameter, 10–25 µm) and filled with a pipette solution (in mM): 120 KCl, 10 HEPES and 3.6 CaCl2 (pH 7.4 adjusted with KOH and HCl). Intracellular bath solutions and compounds were applied to the cytoplasmic side of excised patches for the various K^+ channels through a gravity flow multi-barrel pipette system. The intracellular solution had the following composition (in mM): 120 KCl, 10 HEPES, 2 EGTA and 1 pyrophosphate (pH adjusted with KOH and HCl). Currents were recorded with an EPC10 amplifier (HEKA Electronics) and sampled at 10 kHz or higher, with filtering set to 3 kHz (–3 dB) or higher, as appropriate for sampling rate. For measurements of GPCR activation, whole-cell currents were recorded for THIK-1 in transiently transfected HEK-293 cells. Cells were stimulated by a ramp protocol between −100 and +60 mV (holding potential, −80 mV). The pipette solution was composed of (in mM): 140 KCl, 2 MgCl2, 1 CaCl2, 2.5 EGTA and 10 HEPES (pH 7.3 adjusted with KOH and HCl). The extracellular bath solution had the following composition (in mM): 135 NaCl, 5 KCl, 2 MgCl2, 2 CaCl2, 10 glucose and 10 HEPES pH (pH 7.3 adjusted with NaOH and HCl). Oxotremorine M (Oxo-M) was added to extracellular bath solution to obtain the final concentration. Single-channel currents were recorded with an Axopatch 200B amplifier through a Digidata 1440A digitizer (Molecular Devices). Data were filtered at 2 kHz and recorded at a 200-kHz sampling rate with the program Clampex (Molecular Devices). Pipette solution and bath solution for cell-attached recordings contained (in mM): 140 KCl, 2 MgCl2, 1 CaCl2 and 10 HEPES (pH 7.4 adjusted with KOH and HCl). For inside-out recordings, the bath solution contained (in mM): 140 KCl, 2 MgCl2, 1 CaCl2 and 10 HEPES (pH 7.2 adjusted with KOH and HCl). All experiments were conducted at room temperature. […]

What is called IC50 is the concentration that inhibits the measured activity by half.

Values joined by “and” are separate entries in the source; they are usually repeats but may differ in a detail not shown here. Identical values can stand only once. Like-named read-outs stand apart in the source and are kept apart here.

T1 sequence (Q9HB14 whole entry S136A): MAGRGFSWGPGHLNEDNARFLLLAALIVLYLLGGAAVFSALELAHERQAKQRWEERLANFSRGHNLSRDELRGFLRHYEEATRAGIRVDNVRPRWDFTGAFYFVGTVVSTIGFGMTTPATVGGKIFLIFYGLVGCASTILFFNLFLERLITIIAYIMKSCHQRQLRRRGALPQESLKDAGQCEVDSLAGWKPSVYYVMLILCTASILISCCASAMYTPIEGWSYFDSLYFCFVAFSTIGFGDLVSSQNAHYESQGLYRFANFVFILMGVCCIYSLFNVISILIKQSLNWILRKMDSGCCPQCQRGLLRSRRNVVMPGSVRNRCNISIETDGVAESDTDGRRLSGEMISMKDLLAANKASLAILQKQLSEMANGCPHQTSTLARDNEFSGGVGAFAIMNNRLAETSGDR

For the compound `CCCCC[N+](CCCCC)(CCCCC)CCCCC` [TPenA, tetrapentylammonium], the IC50 on THIK-1 S136A (individual recordings) was 102 µM and 173 µM and 396 µM and 375 µM and 349 µM and 120 µM and 192 µM; on THIK-1 S136A (mean) it was 244 µM. The Normalized currents was 1.00 at THIK-2*-Y292A (0.1 µM TPenA); 0.93 at THIK-2*-Y292A (1 µM TPenA); 0.74 on THIK-2*-Y292A (10 µM TPenA); 0.42 at THIK-2*-Y292A (100 µM TPenA); 0.09 at THIK-2*-Y292A (1000 µM TPenA); 0.07 on THIK-2*-Y292A (5000 µM TPenA). Further, the “τ of 1 mM TPenA block” value at THIK-2*-Y292A (individual recordings) was 0.090 s and 0.080 s and 0.060 s and 0.150 s and 0.070 s; at THIK-2*-Y292A (mean), 0.09 s. Besides, the “τ of 1 mM TPenA release” value at THIK-2*-Y292A (individual recordings) is 0.680 s and 0.860 s and 0.410 s and 0.480 s and 1.100 s and 0.400 s; at THIK-2*-Y292A (mean) it was 0.66 s.

The record behind these values is PMC12263422, “Cryo-EM structure of the human THIK-1 K2P K^+ channel reveals a lower Y gate regulated by lipids and anesthetics” (Nature Structural & Molecular Biology, 2025).
